Measurements taken from the supplement of paper PMC13380429.

Experiments:
[1] = system: A549-ACE2 infected with SARS-CoV-2; assay: SARS-CoV-2 infection rate relative to DMSO; higher = more infection; settings: 24 h
[2] = system: A549-ACE2 infected with SARS-CoV-2; assay: morphology score (similarity to uninfected cells); higher = more like uninfected cells; settings: 24 h
Calu-3 [3] = assay: drug sensitivity score (DSS) for viability; higher = more toxic; extreme values may be limits of the assay; settings: 72 h
HepG2 [4] = assay: as above; settings: 72 h
Caco-2 [5] = assay: as above; settings: 72 h
Vero E6 [6] = assay: as above; settings: 72 h
U2OS [7] = assay: as above; settings: 72 h
Calu-3 [8] = assay: cell viability relative to DMSO; higher = less toxic; settings: 72 h
HepG2 [9] = assay: as above; settings: 72 h
Caco-2 [10] = assay: as above; settings: 72 h
Vero E6 [11] = assay: as above; settings: 72 h
U2OS [12] = assay: as above; settings: 72 h
[13] = system: A549-ACE2 infected with SARS-CoV-2; assay: cell count relative to DMSO; higher = less toxic; settings: 24 h
A549-ACE2 [14] = assay: phospholipidosis EC50; higher = less potent phospholipidosis inducer
Calu-3 [15] = assay: relative viability EC50 (midpoint between 100% and the lowest measured viability); higher = less toxic; settings: 72 h
HepG2 [16] = assay: as above; settings: 72 h
Vero E6 [17] = assay: as above; settings: 72 h
A549-ACE2 [18] = assay: drug-induced phospholipidosis relative to tamoxifen; higher = more phospholipidosis
Caco-2 [19] = assay: relative viability EC50 (midpoint between 100% and the lowest measured viability); higher = less toxic; settings: 72 h
U2OS [20] = assay: as above; settings: 72 h

CCN(CC)CC1CCN(c2ncc3ncnc(Nc4ccc(F)c(Cl)c4)c3n2)CC1 [BIBU-1361]
Settings | SARS-CoV-2 infection rate [%] | cell count [%] | cell viability [%] | morphology score | phospholipidosis EC50 [µM]
A549-ACE2 [14], 24 h | – | – | – | – | 3.2
A549-ACE2 [14], 48 h | – | – | – | – | 3.88
A549-ACE2 [14], 72 h | – | – | – | – | 3.9
Caco-2 [10], 1 nM | – | – | 98 | – | –
Caco-2 [10], 10 nM | – | – | 85.1 | – | –
Caco-2 [10], 100 nM | – | – | 103 | – | –
Caco-2 [10], 1000 nM | – | – | 74.1 | – | –
Caco-2 [10], 10000 nM | – | – | 50.3 | – | –
Calu-3 [8], 1 nM | – | – | 100 | – | –
Calu-3 [8], 10 nM | – | – | 100 | – | –
Calu-3 [8], 100 nM | – | – | 90.7 | – | –
Calu-3 [8], 1000 nM | – | – | 56.7 | – | –
Calu-3 [8], 10000 nM | – | – | 8.7 | – | –
HepG2 [9], 1 nM | – | – | 100 | – | –
HepG2 [9], 10 nM | – | – | 100 | – | –
HepG2 [9], 100 nM | – | – | 106 | – | –
HepG2 [9], 1000 nM | – | – | 90 | – | –
HepG2 [9], 10000 nM | – | – | 40.4 | – | –
U2OS [12], 1 nM | – | – | 100 | – | –
U2OS [12], 10 nM | – | – | 104 | – | –
U2OS [12], 100 nM | – | – | 101 | – | –
U2OS [12], 1000 nM | – | – | 96.6 | – | –
U2OS [12], 10000 nM | – | – | 57.3 | – | –
Vero E6 [11], 1 nM | – | – | 97.3 | – | –
Vero E6 [11], 10 nM | – | – | 96.4 | – | –
Vero E6 [11], 100 nM | – | – | 93.1 | – | –
Vero E6 [11], 1000 nM | – | – | 63.2 | – | –
Vero E6 [11], 10000 nM | – | – | 42.9 | – | –
[1], 0.3 µM | 98 | – | – | – | –
[1], 3 µM | 26 | – | – | – | –
[1], 10 µM | 27 | – | – | – | –
[1], 30 µM | 90 | – | – | – | –
[2], 0.3 µM | – | – | – | 0.01 | –
[2], 3 µM | – | – | – | 0.87 | –
[2], 10 µM | – | – | – | 0.28 | –
[2], 30 µM | – | – | – | -0.37 | –
[13], 0.3 µM | – | 105 | – | – | –
[13], 3 µM | – | 117 | – | – | –
[13], 10 µM | – | 122 | – | – | –
[13], 30 µM | – | 72 | – | – | –

Settings | drug sensitivity score | relative viability EC50 [µM]
Caco-2 [5] | 5.9 | –
Calu-3 [3] | 10.1 | –
Calu-3 [15] | – | 1.02
HepG2 [4] | 4.9 | –
HepG2 [16] | – | 1.89
U2OS [7] | 2.7 | –
Vero E6 [6] | 7.8 | –
Vero E6 [17] | – | 0.573

drug-induced phospholipidosis [%], A549-ACE2 [18]
Settings | 0.3 µM | 0.833333 µM | 3.33333 µM | 6.66667 µM | 10 µM | 30 µM
24 h | 2.83 | 15.5 | 75.3 | 121 | 120 | 99.8
48 h | 4.06 | 11.5 | 65.6 | 111 | 126 | –
72 h | 4.98 | 9.71 | 51.2 | 111 | 123 | –

CC[C@@]1([C@H]2O[C@H]([C@H]3O[C@@](O)(CO)[C@H](C)C[C@@H]3C)C[C@H]2C)CC[C@H]([C@@]2(C)CC[C@]3(C[C@H](O)[C@@H](C)[C@@H]([C@H](C)[C@H](OC)[C@@H](C)C(=O)O)O3)O2)O1 [MONENSIN SODIUM]
Settings | SARS-CoV-2 infection rate, [1] [%] | cell count, [13] [%] | cell viability, Caco-2 [10] [%] | cell viability, Calu-3 [8] [%] | cell viability, HepG2 [9] [%] | cell viability, U2OS [12] [%] | cell viability, Vero E6 [11] [%] | morphology score, [2]
1 nM | – | – | 93.9 | 99 | 94.6 | 99.5 | 96.7 | –
10 nM | – | – | 93.4 | 93.1 | 107 | 96.2 | 103 | –
100 nM | – | – | 109 | 89.9 | 91.8 | 99.3 | 95.6 | –
0.3 µM | 50 | 114 | – | – | – | – | – | 0.72
1000 nM | – | – | 56.9 | 68 | 82.9 | 97.1 | 103 | –
3 µM | 61 | 108 | – | – | – | – | – | 0.85
10 µM | 25 | 115 | – | – | – | – | – | 0.83
10000 nM | – | – | 20.9 | 36.9 | 26.2 | 35.4 | 102 | –
30 µM | 17 | 119 | – | – | – | – | – | 0.82

Settings | drug sensitivity score | relative viability EC50 [µM]
Caco-2 [5] | 9.7 | –
Caco-2 [19] | – | 0.934
Calu-3 [3] | 7.5 | –
Calu-3 [15] | – | 0.789
HepG2 [4] | 6.8 | –
HepG2 [16] | – | 1.61
U2OS [7] | 3.9 | –
U2OS [20] | – | 2.83
Vero E6 [6] | 0 | –
Vero E6 [17] | – | > 10

drug-induced phospholipidosis [%], A549-ACE2 [18]
Settings | 0.3 µM | 0.833333 µM | 3.33333 µM | 6.66667 µM | 10 µM | 30 µM
24 h | -1.18 | -1.15 | 0.94 | 1.15 | -4.98 | -12.7
48 h | 5.4 | 3.73 | 5.09 | -3.84 | -2.31 | -14.7
72 h | 6.27 | 4.79 | 7.82 | – | – | –

Cc1ccc(C(=O)Nc2cccc(C(F)(F)F)c2)cc1Nc1nc(-c2cccnc2)nc2c1cnn2C [NVP-BHG712]
Settings | SARS-CoV-2 infection rate [%] | cell count [%] | cell viability [%] | morphology score | phospholipidosis EC50 [µM]
A549-ACE2 [14], 24 h | – | – | – | – | 1.65
A549-ACE2 [14], 48 h | – | – | – | – | 2.21
A549-ACE2 [14], 72 h | – | – | – | – | 3.75
Caco-2 [10], 1 nM | – | – | 93.9 | – | –
Caco-2 [10], 10 nM | – | – | 93.5 | – | –
Caco-2 [10], 100 nM | – | – | 101 | – | –
Caco-2 [10], 1000 nM | – | – | 96.6 | – | –
Caco-2 [10], 10000 nM | – | – | 107 | – | –
Calu-3 [8], 1 nM | – | – | 100 | – | –
Calu-3 [8], 10 nM | – | – | 95.2 | – | –
Calu-3 [8], 100 nM | – | – | 96.3 | – | –
Calu-3 [8], 1000 nM | – | – | 108 | – | –
Calu-3 [8], 10000 nM | – | – | 102 | – | –
HepG2 [9], 1 nM | – | – | 117 | – | –
HepG2 [9], 10 nM | – | – | 104 | – | –
HepG2 [9], 100 nM | – | – | 96.5 | – | –
HepG2 [9], 1000 nM | – | – | 48.6 | – | –
HepG2 [9], 10000 nM | – | – | 74.1 | – | –
U2OS [12], 1 nM | – | – | 95.7 | – | –
U2OS [12], 10 nM | – | – | 94.3 | – | –
U2OS [12], 100 nM | – | – | 109 | – | –
U2OS [12], 1000 nM | – | – | 95.5 | – | –
U2OS [12], 10000 nM | – | – | 105 | – | –
Vero E6 [11], 1 nM | – | – | 96.5 | – | –
Vero E6 [11], 10 nM | – | – | 102 | – | –
Vero E6 [11], 100 nM | – | – | 98.1 | – | –
Vero E6 [11], 1000 nM | – | – | 109 | – | –
Vero E6 [11], 10000 nM | – | – | 108 | – | –
[1], 0.3 µM | 99 | – | – | – | –
[1], 3 µM | 68 | – | – | – | –
[1], 10 µM | 41 | – | – | – | –
[1], 30 µM | 84 | – | – | – | –
[2], 0.3 µM | – | – | – | -0.1 | –
[2], 3 µM | – | – | – | 0.35 | –
[2], 10 µM | – | – | – | 0.14 | –
[2], 30 µM | – | – | – | 0.25 | –
[13], 0.3 µM | – | 98 | – | – | –
[13], 3 µM | – | 111 | – | – | –
[13], 10 µM | – | 69 | – | – | –
[13], 30 µM | – | 93 | – | – | –

Settings | drug sensitivity score | relative viability EC50 [µM]
Caco-2 [5] | 0 | –
Caco-2 [19] | – | > 10
Calu-3 [3] | 0 | –
Calu-3 [15] | – | > 10
HepG2 [4] | 9.9 | –
HepG2 [16] | – | 0.264
U2OS [7] | 0 | –
U2OS [20] | – | > 10
Vero E6 [6] | 0 | –
Vero E6 [17] | – | > 10

drug-induced phospholipidosis [%], A549-ACE2 [18]
Settings | 0.3 µM | 0.833333 µM | 3.33333 µM | 6.66667 µM | 10 µM | 30 µM
24 h | 3.95 | 19.7 | 113 | 126 | 120 | 138
48 h | 7.5 | 21.5 | 139 | 176 | 183 | –
72 h | 7.15 | 18.8 | 137 | 208 | 244 | –
